Values quoted from earlier work, collected in EP3888461A1, “NON-AQUEOUS DISPERSIONS COMPRISING INHIBITORS OF HYDROXYPHENYLPYRUVATE-DIOXYGENASE AND CITRIC ACID” (Bayer AG, priority 2020, dated 2021).

Conditions: commercially available brands of surfactants of structure (II)

| Substance | Log P |
| --- | --- |
| Tween® 21 | 2.71 |
| Tween® 80 | 1.99 |
| Tween® 40 | 1.47 |
| Tween® 20 | -0.55 |
| Tween® 60 | 2.48 |
| Polyoxyethylene (16) sorbitan monolaurate [Tween® 24] | 0.26 |
